From patent US20230011269A1, “PHARMACEUTICAL COMPOSITION COMPRISING A POTENT INHIBITOR OF URAT1” (Ardea Biosciences, Inc., priority 2015, published 2023)
Converted amounts (≈) assume the structure as drawn. Read-outs that look alike come from different tables or passages of the source.

Key:
[1] = Phase 1 study of MR formulations MR1-5: plasma pharmacokinetics; type: in vivo; conditions: male, human, oral, 5 mg, MR1-MR5 formulations, fasted and fed (Table 9), read-out: average terminal half-life
Procedure: A Phase 1, randomized study to evaluated the PK, PD, and safety and tolerability of 2-((3-(4-cyanonaphthalen-1-yl)pyridine-4-yl)thio)-2-methylpropanoic acid MR formulations in n=12 healthy adult male subjects in fasted and fed states. This study evaluated a total of 5 MR formulations at a 5 mg dose. The MR formulations tested are those described in Examples 2-6. Plasma samples for PK analysis were collected at the following time points: Pre-dose (within 30 minutes before dosing) and at 0.25, 0.5, 0.75, 1, 1.5, 2, 2.5, 3, 4, 5, 6, 8, 10, 12, 24, 30, 36, 48, 54, 60 and 72 hours post-dose. A summary of the mean plasma pharmacokinetic parameters following administration of the MR compositions of 2-((3-(4-cyanonaphthalen-1-yl)pyridine-4-yl)thio)-2-methylpropanoic acid are provided in Table 9.

[2] = aqueous equilibrium solubility at 37° C.; type: physicochemical; conditions: aqueous media, thermodynamic from solid
Excerpt: The solubility of 2-((3-(4-cyanonaphthalen-1-yl)pyridine-4-yl)thio)-2-methylpropanoic acid in aqueous media is highly dependent upon pH.

[3] = Phase 1 crossover study MR4 4 x 2.5 mg vs 10 mg tablet, food effect: plasma pharmacokinetics; conditions: male, human, in vivo
Procedure: A Phase 1, randomized, open label, 4 way crossover PK and PD study in healthy adult male subjects designed to assess the relative bioavailability of 2-((3-(4-cyanonaphthalen-1-yl)pyridine-4-yl)thio)-2-methylpropanoic acid 2.5 mg MR tablets administered as a 10 mg dose (4×2.5 mg tablets) and a single 2-((3-(4-cyanonaphthalen-1-yl)pyridine-4-yl)thio)-2-methylpropanoic acid 10 mg MR tablet. The 10 mg MR tablet was prepared as described in Example 5a. This study also assessed the effect of a low fat and high fat meal on the PK and PD of 2-((3-(4-cyanonaphthalen-1-yl)pyridine-4-yl)thio)-2-methylpropanoic acid 10 mg MR tablets. Sixteen subjects were randomized to 1 of 4 treatment sequences. The treatments administered on Days 1 or 5 according to the randomization schedule were as follows: • Treatment A: 10 mg dose of 2-((3-(4-cyanonaphthalen-1-yl)pyridine-4-yl)thio)-2-methylpropanoic acid, administered as 4×2.5 mg ER tablets, in the fasted state. • Treatment B: 10 mg dose of 2-((3-(4-cyanonaphthalen-1-yl)pyridine-4-yl)thio)-2-methylpropanoic acid, administered as a single 10 mg ER tablet, in the fasted state. […]

serum urate = test: Phase 1 single dose study, immediate release formulations: serum urate lowering; type: in vivo, human; conditions: mean maximum observed percentage change from pre-dose in serum urate concentrations (Emax)
Excerpt: A phase 1, randomized, double-blind, placebo-controlled study in healthy adult male volunteers evaluated single rising doses and the preliminary food effect for 2-((3-(4-cyanonaphthalen-1-yl)pyridine-4-yl)thio)-2-methylpropanoic acid at 6 dose groups with 8 subjects per group. […] Subjects in each dose group were randomized to receive a single dose of either 2-((3-(4-cyanonaphthalen-1-yl)pyridine-4-yl)thio)-2-methylpropanoic acid (6 subjects) or placebo (2 subjects). 2-((3-(4-cyanonaphthalen-1-yl)pyridine-4-yl)thio)-2-methylpropanoic acid was supplied as 1 mg oral solution, 2 mg oral solution, 5 mg tablets, or 20 mg tablets (depending on dose level).
The mean plasma concentration-time profiles for the IR formulations under fed and fasted conditions are depicted in FIGS. 3a and 3b. Absorption of 2-((3-(4-cyanonaphthalen-1-yl)pyridine-4-yl)thio)-2-methylpropanoic acid following a single oral dose under fasted conditions was rapid. […] When 2-((3-(4-cyanonaphthalen-1-yl)pyridine-4-yl)thio)-2-methylpropanoic acid was administered with food, slightly slower absorption and lower exposure were observed. […] Important pharmacodynamic parameters related to the serum Uric Acid lowering effects are shown in the following two tables: […]

SMILES: CC(C)(Sc1ccncc1-c1ccc(C#N)c2ccccc12)C(=O)O [2-((3-(4-cyanonaphthalen-1-yl)pyridine-4-yl)thio)-2-methylpropanoic acid]
- half-life [1]: 10 to 28 h
- solubility at 24 h ([2]; pH 1, simulated gastric fluid, 0.1N HCl, pH initial 1.1, pH (24 h) 1.0, read-out: Solubility after 24 hours): 1480 µg/mL (≈ 4250 µM)
- solubility at 48 h ([2]; pH 1.1, simulated gastric fluid, 0.1N HCl, pH initial 1.1, pH (48 h) 1.1, read-out: Solubility after 48 hours): 1240 µg/mL (≈ 3550 µM)
- solubility at 24 h ([2]; pH 1.6, simulated gastric fluid, SGF pH 1.6, pH initial 1.6, pH (24 h) 1.4, read-out: Solubility after 24 hours): 415 µg/mL (≈ 1190 µM)
- solubility at 48 h ([2]; pH 1.6, simulated gastric fluid, SGF pH 1.6, pH initial 1.6, pH (48 h) 1.4, read-out: Solubility after 48 hours): 398 µg/mL (≈ 1140 µM)
- solubility at 24 h ([2]; pH 3, aqueous buffer, Citrate pH 3.0, pH initial 3.0, pH (24 h) 2.8, read-out: Solubility after 24 hours): 66 µg/mL (≈ 189 µM)
- solubility at 48 h ([2]; pH 3, aqueous buffer, Citrate pH 3.0, pH initial 3.0, pH (48 h) 2.8, read-out: Solubility after 48 hours): 65 µg/mL (≈ 187 µM)
- solubility at 24 h ([2]; pH 4, aqueous buffer, Succinate pH 4.0, pH initial 4.0, pH (24 h) 3.9, read-out: Solubility after 24 hours): 56 µg/mL (≈ 161 µM)
- solubility at 48 h ([2]; pH 4, aqueous buffer, Succinate pH 4.0, pH initial 4.0, pH (48 h) 3.9, read-out: Solubility after 48 hours): 55 µg/mL (≈ 158 µM)
- solubility at 24 h ([2]; pH 4.5, aqueous buffer, Acetate pH 4.5, pH initial 4.6, pH (24 h) 4.5, read-out: Solubility after 24 hours): 70 µg/mL (≈ 201 µM)
- solubility at 48 h ([2]; pH 4.5, aqueous buffer, Acetate pH 4.5, pH initial 4.6, pH (48 h) 4.5, read-out: Solubility after 48 hours): 65 µg/mL (≈ 187 µM)
- solubility at 24 h ([2]; pH 5, aqueous buffer, Citrate pH 5.0, pH initial 5.0, pH (24 h) 5.0, read-out: Solubility after 24 hours): 97 µg/mL (≈ 278 µM)
- solubility at 48 h ([2]; pH 5, aqueous buffer, Citrate pH 5.0, pH initial 5.0, pH (48 h) 4.9, read-out: Solubility after 48 hours): 95 µg/mL (≈ 273 µM)
- solubility at 48 h ([2]; pH 5.3, water, Water, pH initial 6.3, pH (48 h) 5.3, read-out: Solubility after 48 hours): 132 µg/mL (≈ 379 µM)
- solubility at 24 h ([2]; pH 5.4, water, Water, pH initial 6.3, pH (24 h) 5.4, read-out: Solubility after 24 hours): 148 µg/mL (≈ 425 µM)
- solubility at 24 h ([2]; pH 6, aqueous buffer, Histidine pH 6.0, pH initial 6.1, pH (24 h) 5.8, read-out: Solubility after 24 hours): 532 µg/mL (≈ 1530 µM)
- solubility at 48 h ([2]; pH 6, aqueous buffer, Histidine pH 6.0, pH initial 6.1, pH (48 h) 5.8, read-out: Solubility after 48 hours): 485 µg/mL (≈ 1390 µM)
- solubility at 24 h ([2]; pH 6.8, aqueous buffer, Potassium phosphate pH 6.8, pH initial 6.9, pH (24 h) 6.6, read-out: Solubility after 24 hours): 2370 µg/mL (≈ 6800 µM)
- solubility at 48 h ([2]; pH 6.8, aqueous buffer, Potassium phosphate pH 6.8, pH initial 6.9, pH (48 h) 6.5, read-out: Solubility after 48 hours): 2710 µg/mL (≈ 7770 µM)
- solubility at 24 h ([2]; pH 6.9, aqueous buffer, 0.03N NaOH, pH initial 12.3, pH (24 h) 6.9, read-out: Solubility after 24 hours): 10600 µg/mL (≈ 30300 µM)
- solubility at 48 h ([2]; pH 6.9, aqueous buffer, 0.03N NaOH, pH initial 12.3, pH (48 h) 6.9, read-out: Solubility after 48 hours): 10300 µg/mL (≈ 29400 µM)
- solubility at 48 h ([2]; pH 7, aqueous buffer, 0.1N NaOH, pH initial 12.8, pH (48 h) 7.0, read-out: Solubility after 48 hours): 33500 µg/mL (≈ 96100 µM)
- solubility at 24 h ([2]; pH 7, aqueous buffer, Sodium phosphate pH 7.0, pH initial 7.0, pH (24 h) 6.7, read-out: Solubility after 24 hours): 3520 µg/mL (≈ 10100 µM)
- solubility at 48 h ([2]; pH 7, aqueous buffer, Sodium phosphate pH 7.0, pH initial 7.0, pH (48 h) 6.6, read-out: Solubility after 48 hours): 3620 µg/mL (≈ 10400 µM)
- solubility at 24 h ([2]; pH 7.1, aqueous buffer, 0.1N NaOH, pH initial 12.8, pH (24 h) 7.1, read-out: Solubility after 24 hours): 31900 µg/mL (≈ 91500 µM)
- solubility at 48 h ([2]; pH 7.4, aqueous buffer, 0.3N NaOH, pH initial 13.2, pH (48 h) 7.4, read-out: Solubility after 48 hours): 93600 µg/mL (≈ 269000 µM)
- solubility at 24 h ([2]; pH 11.7, aqueous buffer, 0.3N NaOH, pH initial 13.2, pH (24 h) 11.7, read-out: Solubility after 24 hours): 87800 µg/mL (≈ 252000 µM)
- decrease of AUC∞ by a low-fat meal compared with the fasted state [3]: ~17%
- decrease of Cmax by a low-fat meal compared with the fasted state [3]: approximately 21%
- Mean % change in sUA from predose (serum urate; 2 mg/Fasted): 8%
- Mean % change in sUA from predose (serum urate; 5 mg/Fasted): 15%
- Mean % change in sUA from predose (serum urate; 20 mg/Fasted): 43%
- Mean % change in sUA from predose (serum urate; 40 mg/Fasted): 58%
